Test results as given in patent US6117841A, “Substituted peptidylamine calcium channel blockers” (Warner-Lambert Company, priority 1999, dated 2000).

target: T1, N-type Ca^2+ Channel (Homo sapiens, UniProt Q00975); assay: Measurement of N-type Ca2+ channel blocking potencies in IMR-32 cells using the fluorescent Ca2+ indicator Indo-1; format: cell-based; conditions: IMR-32 cells, K+ depolarization, 5 μM nitrendipine to block L-type channels; read-out: IMR 32 IC50
T1 construct: host or cells: IMR-32 cells differentiated with dibutyryl cAMP and bromodeoxyuridine
Method: Measurement of N-type Ca^2+ Channel Blocking Potencies of Compounds in IMR-32 Cells Using the Fluorescent Ca^2 + Indicator Indo-1
IMR-32 cells are a human tumoral cell line of neural origin. […] Calcium flux into these cells may be induced by stimulation with elevated potassium concentrations. The L-channel component of calcium flux may be blocked by adding 5 μM nitrendipine. The remaining component of calcium entry into the IMR-32 cells is due to calcium flux through N-type calcium channels. Intracellular calcium concentrations are measured using the fluorescent calcium indicator Indo-1. The effect of drug concentration on calcium uptake is studied.
The IMR-32 cell line was obtained from the American Type Culture Collection (Rockville, Md.). Cells were grown in Eagle's Minimum Essential Medium with Earle's salts supplemented with 10% fetal bovine serum, 2 mM L-Gln and antibiotic/antimycotic mixture (Gibco). At approximately 80% confluency, differentiation was induced by the addition of 1 mM dibutyryl cAMP and 2.5 μM bromodeoxyuridine to the medium. After 7 to 13 days of differentiation, cells were detached using 0.5 mM EDTA and loaded with 5 μM Indo-1 acetoxymethyl ester (Molecular Probes, Eugene, Oreg.) at 30° C. for 45 minutes. Loaded cells were washed twice, resuspended (~10^7 cells/mL) in assay buffer (10 mM HEPES/Tris pH 7.4 in Hank's Balanced Salt Solution without bicarbonate or phenol red containing 0.5% bovine serum albumin) and kept on ice until use. Fluorescence measurements were carried out in a Photon Technology International (PTI, South Brunswick, N.J.) Model RF-F3004 spectrofluorometer with dual emission monochromators using excitation at 350 nm and emission at 400 and 490 nm. The instrument was equipped with a thermostated cuvette holder with stirring capabilities as well as with a computer-controlled pump which allowed for reagent addition during measurement. Instrument control and data collection was done by PTI's OSCAR software running on an IBM compatible computer. Different concentrations of the test compounds (60 μL in dimethyl sulfoxide) were added to 5.94 mL of assay buffer containing approximately 3×10^6 loaded cells, and 5 μM nitrendipine (in 30 μL EtOH) to block L-type Ca^2+ channels. Samples were incubated for 10 minutes at 30° C. and then aliquoted into three 10×10 mm disposable acrylic cuvettes. Emission signals at 400 and 490 nm were acquired from each cuvette at 30° C. for 50 seconds. At 20 seconds after the start of reading, cells were depolarized by the addition of 160 μL of stimulation solution (1 M KCl, 68 mM CaCl2) to the cuvette via the computer-controlled pump. Ratio of dual emission signals (400 nm/ 490 nm), which is proportional to intracellular Ca^2+ concentration, was plotted against time, and the difference between maximal response after stimulation and basal value (before stimulation) was determined. Values obtained in this way were plotted as a function of drug concentration. IC50 values of test compounds were calculated by fitting a four-parameter logistic function to the data using the least squares method.

T1 sequence (Q00975 whole entry): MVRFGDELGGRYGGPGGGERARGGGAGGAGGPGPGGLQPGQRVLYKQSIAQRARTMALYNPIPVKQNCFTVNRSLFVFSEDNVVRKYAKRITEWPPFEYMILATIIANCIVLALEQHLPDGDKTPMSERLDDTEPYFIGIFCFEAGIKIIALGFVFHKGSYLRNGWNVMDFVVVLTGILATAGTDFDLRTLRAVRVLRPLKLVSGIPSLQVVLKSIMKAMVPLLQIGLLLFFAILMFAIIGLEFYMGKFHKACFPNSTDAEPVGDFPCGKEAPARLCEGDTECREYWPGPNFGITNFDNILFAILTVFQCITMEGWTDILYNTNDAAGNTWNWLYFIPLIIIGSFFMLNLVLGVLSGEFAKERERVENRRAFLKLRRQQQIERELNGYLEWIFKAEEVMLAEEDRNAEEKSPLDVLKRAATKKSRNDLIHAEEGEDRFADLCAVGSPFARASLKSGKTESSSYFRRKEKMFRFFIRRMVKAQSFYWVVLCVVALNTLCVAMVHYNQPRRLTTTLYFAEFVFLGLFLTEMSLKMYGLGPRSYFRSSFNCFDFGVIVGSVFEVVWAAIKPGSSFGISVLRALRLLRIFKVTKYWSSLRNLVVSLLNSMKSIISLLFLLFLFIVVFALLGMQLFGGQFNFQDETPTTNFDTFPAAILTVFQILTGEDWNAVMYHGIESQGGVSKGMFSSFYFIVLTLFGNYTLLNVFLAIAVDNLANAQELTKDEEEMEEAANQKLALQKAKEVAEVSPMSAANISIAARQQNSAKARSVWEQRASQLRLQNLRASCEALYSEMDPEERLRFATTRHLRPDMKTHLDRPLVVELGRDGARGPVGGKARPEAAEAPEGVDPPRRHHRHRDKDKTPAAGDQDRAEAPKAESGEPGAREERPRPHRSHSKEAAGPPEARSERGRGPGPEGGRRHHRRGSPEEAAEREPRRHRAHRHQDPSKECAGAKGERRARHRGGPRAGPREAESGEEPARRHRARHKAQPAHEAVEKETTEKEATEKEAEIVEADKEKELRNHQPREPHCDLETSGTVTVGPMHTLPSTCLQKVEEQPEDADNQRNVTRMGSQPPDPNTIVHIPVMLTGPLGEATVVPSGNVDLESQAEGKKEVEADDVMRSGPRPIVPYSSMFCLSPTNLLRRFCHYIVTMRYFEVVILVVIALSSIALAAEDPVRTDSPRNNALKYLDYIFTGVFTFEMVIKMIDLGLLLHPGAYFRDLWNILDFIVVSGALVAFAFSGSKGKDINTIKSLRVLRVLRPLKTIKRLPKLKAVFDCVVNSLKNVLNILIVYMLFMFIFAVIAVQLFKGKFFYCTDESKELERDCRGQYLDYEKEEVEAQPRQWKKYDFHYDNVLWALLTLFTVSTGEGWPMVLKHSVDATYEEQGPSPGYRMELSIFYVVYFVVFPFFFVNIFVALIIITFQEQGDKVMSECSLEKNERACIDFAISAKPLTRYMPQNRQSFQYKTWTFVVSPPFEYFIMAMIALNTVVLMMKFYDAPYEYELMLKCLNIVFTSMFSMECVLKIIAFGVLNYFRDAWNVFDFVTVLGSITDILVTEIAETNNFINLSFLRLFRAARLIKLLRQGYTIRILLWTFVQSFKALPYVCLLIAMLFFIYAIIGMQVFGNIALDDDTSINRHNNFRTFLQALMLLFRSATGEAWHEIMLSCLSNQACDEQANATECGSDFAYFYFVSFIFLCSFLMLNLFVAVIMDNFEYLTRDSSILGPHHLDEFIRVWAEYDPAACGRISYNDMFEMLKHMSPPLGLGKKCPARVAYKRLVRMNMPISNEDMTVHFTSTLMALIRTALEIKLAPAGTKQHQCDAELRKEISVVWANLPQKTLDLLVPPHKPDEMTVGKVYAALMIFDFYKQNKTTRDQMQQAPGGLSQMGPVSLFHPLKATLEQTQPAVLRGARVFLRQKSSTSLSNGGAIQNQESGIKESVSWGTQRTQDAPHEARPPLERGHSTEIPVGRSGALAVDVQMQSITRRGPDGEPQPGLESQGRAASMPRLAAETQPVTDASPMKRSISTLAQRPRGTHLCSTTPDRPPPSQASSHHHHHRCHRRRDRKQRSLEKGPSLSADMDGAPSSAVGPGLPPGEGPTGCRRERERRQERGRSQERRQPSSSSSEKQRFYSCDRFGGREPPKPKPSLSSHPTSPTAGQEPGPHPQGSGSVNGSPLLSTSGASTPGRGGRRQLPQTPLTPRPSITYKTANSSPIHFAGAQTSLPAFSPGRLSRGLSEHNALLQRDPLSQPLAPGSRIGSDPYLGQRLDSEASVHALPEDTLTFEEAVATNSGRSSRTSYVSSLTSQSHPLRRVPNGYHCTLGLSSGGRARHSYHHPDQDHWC
T1 sequence (P54284 whole entry partner): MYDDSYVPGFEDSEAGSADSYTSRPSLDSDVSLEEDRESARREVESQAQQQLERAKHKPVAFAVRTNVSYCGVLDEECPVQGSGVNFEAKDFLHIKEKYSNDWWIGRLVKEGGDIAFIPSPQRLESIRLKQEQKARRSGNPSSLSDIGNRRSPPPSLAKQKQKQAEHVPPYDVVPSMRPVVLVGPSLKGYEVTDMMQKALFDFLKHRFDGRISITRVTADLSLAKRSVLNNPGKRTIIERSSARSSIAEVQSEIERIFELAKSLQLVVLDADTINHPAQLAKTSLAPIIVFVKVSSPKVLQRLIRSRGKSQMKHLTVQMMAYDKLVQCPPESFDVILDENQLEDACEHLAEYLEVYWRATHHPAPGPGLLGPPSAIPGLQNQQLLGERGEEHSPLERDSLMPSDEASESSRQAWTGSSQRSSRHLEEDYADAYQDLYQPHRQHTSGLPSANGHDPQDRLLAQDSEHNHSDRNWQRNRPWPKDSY
T1 sequence (P54289 25-946 partner limits assumed): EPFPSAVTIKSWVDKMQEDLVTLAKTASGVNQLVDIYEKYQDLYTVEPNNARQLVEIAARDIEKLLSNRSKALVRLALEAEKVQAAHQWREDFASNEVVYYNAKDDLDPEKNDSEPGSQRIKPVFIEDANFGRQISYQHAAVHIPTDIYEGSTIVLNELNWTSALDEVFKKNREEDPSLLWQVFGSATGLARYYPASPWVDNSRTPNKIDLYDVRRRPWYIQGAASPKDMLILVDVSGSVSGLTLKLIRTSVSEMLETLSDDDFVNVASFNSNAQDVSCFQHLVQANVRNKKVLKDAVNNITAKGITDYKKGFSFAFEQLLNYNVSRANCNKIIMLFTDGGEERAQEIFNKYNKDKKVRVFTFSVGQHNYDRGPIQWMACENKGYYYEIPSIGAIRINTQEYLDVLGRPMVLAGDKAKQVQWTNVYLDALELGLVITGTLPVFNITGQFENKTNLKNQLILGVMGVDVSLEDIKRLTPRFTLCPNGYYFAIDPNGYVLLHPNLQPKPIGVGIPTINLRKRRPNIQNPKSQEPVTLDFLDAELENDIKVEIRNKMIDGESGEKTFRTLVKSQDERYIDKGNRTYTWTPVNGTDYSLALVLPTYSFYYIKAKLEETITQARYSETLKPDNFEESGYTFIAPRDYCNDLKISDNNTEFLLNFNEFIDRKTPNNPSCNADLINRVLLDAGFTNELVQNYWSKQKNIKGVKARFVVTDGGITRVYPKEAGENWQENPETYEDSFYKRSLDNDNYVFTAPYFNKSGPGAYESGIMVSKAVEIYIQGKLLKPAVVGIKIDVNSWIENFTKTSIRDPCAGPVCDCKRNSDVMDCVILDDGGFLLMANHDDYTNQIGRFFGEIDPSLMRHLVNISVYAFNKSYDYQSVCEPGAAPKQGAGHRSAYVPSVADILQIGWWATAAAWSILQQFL
T1 sequence (P54289 947-1103 partner limits assumed): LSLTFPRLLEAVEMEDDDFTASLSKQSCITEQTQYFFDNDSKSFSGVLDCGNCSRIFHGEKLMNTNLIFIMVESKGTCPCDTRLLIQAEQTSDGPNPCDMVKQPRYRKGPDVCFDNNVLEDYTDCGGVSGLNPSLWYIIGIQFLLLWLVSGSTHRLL

Row | Compound | IC50 [µM]
1 | CC(C)C[C@H](NCc1ccc(C(C)(C)C)cc1)C(=O)N[C@@H](Cc1ccc(OCc2ccccc2)cc1)C(=O)N1CCN(Cc2ccccc2)CC1 (relative stereo) [Example 52, [S-(R*,R*)]-2-(4-tert-Butyl-benzylamino)-4-methyl-pentanoic acid [1-(4-benzyloxy-benzyl)-2-(4-benzyl-piperazin-1-yl)-2-oxo-ethyl]-amide] | 0.77
2 | CC(C)=CCN[C@@H](CC(C)C)C(=O)N[C@@H](Cc1ccc(OCc2ccccc2)cc1)C(=O)N1CCN(Cc2ccccc2)CC1 (relative stereo) [Example 53, [S-(R*,R*)]-4-Methyl-2-(3-methyl-but-2-enylamino)-pentanoic acid [1-(4-benzyloxy-benzyl)-2-(4-benzyl-piperazin-1-yl)-2-oxo-ethyl]-amide] | 0.7
3 | CC(C)CCN(C)[C@@H](CC(C)C)C(=O)N[C@@H](Cc1ccc(OCc2ccccc2)cc1)C(=O)N1CCSCC1 (relative stereo) [Example 61, [S-(R*,R*)]-4-Methyl-2-[methyl-(3-methyl-butyl)-amino]-pentanoic acid [1-(4-benzyloxy-benzyl)-2-oxo-2-thiomorpholin-4-yl-ethyl]-amide] | 0.4
4 | CC(C)CCN(C)[C@@H](CC(C)C)C(=O)N[C@@H](Cc1ccc(OCc2ccccc2)cc1)C(=O)N1CCC(O)CC1 (relative stereo) [Example 65, [S-(R*,R*)]-4-Methyl-2-[methyl-(3-methyl-butyl)-amino]-pentanoic acid [1-(4-benzyloxy-benzyl)-2-(4-hydroxy-piperidin-1-yl)-2-oxo-ethyl]-amide] | 1.1
5 | CC(C)CCN(C)[C@@H](CC(C)C)C(=O)N[C@@H](Cc1ccc(OCc2ccccc2)cc1)C(=O)NC1CCN(Cc2ccccc2)C1 (relative stereo) [Example 67, [S-(R*,R*)]-4-Methyl-2-[methyl-(3-methyl-butyl)-amino]-pentanoic acid [2-(4-benzyloxy-phenyl)-1-(1-benzyl-pyrrolidin-3-ylcarbamoyl)-ethyl]-amide] | 0.4
6 | CC(C)C[C@@H](C(=O)N[C@@H](Cc1ccc(OCc2ccccc2)cc1)C(=O)NCCNCc1ccccc1)N1CCOCC1 (relative stereo) [Example 68, [S-(R*,R*)]-4-Methyl-2-morpholin4-yl-pentanoic acid [1-(2-benzylamino-ethylcarbamoyl)-2-(4-benzyloxy-phenyl)-ethyl]-amide] | 1.1
7 | CC(C)C[C@@H](C(=O)N[C@@H](Cc1ccc(OCc2ccccc2)cc1)C(=O)NC1CCN(Cc2ccccc2)C1)N1CCOCC1 (relative stereo) [Example 69, [S-(R*,R*)]-4-Methyl-2-morpholin-4-yl-pentanoic acid [2-(4-benzyloxy-phenyl)-1-(1-benzyl-pyrrolidin-3-ylcarbamoyl)-ethyl]-amide] | 1.3
8 | CC(C)C[C@H](NC1CCOCC1)C(=O)N[C@@H](Cc1ccc(OCc2ccccc2)cc1)C(=O)NCCNCc1ccccc1 (relative stereo) [Example 71, [S-(R*,R*)]-4-Methyl-2-(tetrahydro-pyran-4-ylamino)-pentanoic acid [1-(2-benzylamino-ethylcarbamoyl)-2-(4-benzyloxy-phenyl)-ethyl]-amide] | 0.7
9 | CC(C)C[C@H](NC1CCOCC1)C(=O)N[C@@H](Cc1ccc(OCc2ccccc2)cc1)C(=O)N1CCSCC1 (relative stereo) [Example 72, [S-(R*,R*)]-4-Methyl-2-(tetrahydro-pyran-4-ylamino)-pentanoic acid [1-(4-benzyloxy-benzyl)-2-oxo-2-thiomorpholin-4-yl-ethyl]-amide] | 1.2
10 | CCC(COC)NC(=O)[C@H](Cc1ccc(OCc2ccccc2)cc1)NC(=O)[C@H](CC(C)C)NC1CCOCC1 (relative stereo) [Example 75, [S-(R*,R*)]-4-Methyl-2-(tetrahydro-pyran-4-ylamino)-pentanoic acid [2-(4-benzyloxy-phenyl)-1-(1-methoxymethyl-propylcarbamoyl)-ethyl]-amide] | 2.4
11 | CC(C)C[C@H](NC1CCOCC1)C(=O)N[C@@H](Cc1ccc(OCc2ccccc2)cc1)C(=O)NC1CCN(Cc2ccccc2)C1 (relative stereo) [Example 76, [S-(R*,R*)]-4-Methyl-2-(tetrahydro-pyran4-ylamino)-pentanoic acid [2-(4-benzyloxy-phenyl)-1-(1-benzyl-pyrrolidin-3-ylcarbamoyl)-ethyl]-amide] | 0.6
12 | CC(C)C[C@H](NC1CCOCC1)C(=O)N[C@@H](Cc1ccc(OCc2ccccc2)cc1)C(=O)NCCN1CCCCC1 (relative stereo) [Example 77, [S-(R*,R*)]-4-Methyl-2-(tetrahydro-pyran-4-ylamino)-pentanoic acid [2-(4-benzyloxy-phenyl)-1-(2-piperidin-1-yl-ethylcarbamoyl)-ethyl]-amide] | 2.6

Other lines, results leading:

Row | IC50 [µM] | Compound
13 | 2.1 | CC(C)CCN(C)[C@@H](CC(C)C)C(=O)N[C@@H](Cc1ccc(OCc2ccccc2)cc1)C(=O)NCCN1CCOCC1 (relative stereo) [Example 57, [S-(R*,R*)]-4-Methyl-2-[methyl-(3-methyl-butyl)-amino]-pentanoic acid [2-(4-benzyloxy-phenyl)-1-(2-morpholin-4-yl-ethylcarbamoyl)-ethyl]-amide]
14 | 1 | CC(C)CCN(C)[C@@H](CC(C)C)C(=O)N[C@@H](Cc1ccc(OCc2ccccc2)cc1)C(=O)NCCc1ccccn1 (relative stereo) [Example 58, [S-(R*,R*)]-4-Methyl-2-[methyl-(3-methyl-butyl)-amino]-pentanoic acid [2-(4-benzyloxy-phenyl)-1-(2-pyridin-2-yl-ethylcarbamoyl)-ethyl]-amide]
15 | 1.6 | CC(C)CCN(C)[C@@H](CC(C)C)C(=O)N[C@@H](Cc1ccc(OCc2ccccc2)cc1)C(=O)NCCCn1ccnc1 (relative stereo) [Example 59, [S-(R*,R*)]-4-Methyl-2-[methyl-(3-methyl-butyl)-amino]-pentanoic acid [2-(4-benzyloxy-phenyl)-1-(3-imidazol-1-yl-propylcarbamoyl)-ethyl]-amide]
16 | 1.1 | CC(C)CCN(C)[C@@H](CC(C)C)C(=O)N[C@@H](Cc1ccc(OCc2ccccc2)cc1)C(=O)NC(C)(CO)CO (relative stereo) [Example 62, [S-(R*,R*)]-4-Methyl-2-[methyl-(3-methyl-butyl)-amino]-pentanoic acid [2-(4-benzyloxy-phenyl)-1-(2-hydroxy-1-hydroxymethyl-1-methyl-ethylcarbamoyl)-ethyl]-amide]
17 | 0.8 | CCC(COC)NC(=O)[C@H](Cc1ccc(OCc2ccccc2)cc1)NC(=O)[C@H](CC(C)C)N(C)CCC(C)C (relative stereo) [Example 63, [S-(R*,R*)]-4-Methyl-2-[methyl-(3-methyl-butyl)-amino]-pentanoic acid [2-(4-benzyloxy-phenyl)-1-(1-methoxymethyl-propylcarbamoyl)-ethyl]-amide]
18 | 2.4 | CC(C)CCN(C)[C@@H](CC(C)C)C(=O)N[C@@H](Cc1ccc(OCc2ccccc2)cc1)C(=O)NCCN1CCCC1 (relative stereo) [Example 64, [S-(R*,R*)]-4-Methyl-2-[methyl-(3-methyl-butyl)-amino]-pentanoic acid [2-(4-benzyloxy-phenyl)-1-(2-pyrrolidin-1-yl-ethylcarbamoyl)-ethyl]-amide]
